Assay results as given in ChEMBL document CHEMBL5576107, “Wajeepeptin, a Cytotoxic and Antitrypanosomal Cyclic Depsipeptide from a Marine Moorena sp. Cyanobacterium” (J Nat Prod, 2024).
Calls of active or inactive are those of the source. The calls are words filed in the database; no cut-off is given here. Starred links: 1 amine or outer side, 2 acyl side, 3 side chain; linkers in the order of their positions; H or OH if unused. Non-standard residues stand in square brackets, D forms with d. Residues, ends and D or L forms follow the SMILES beside them. X1 = CC[C@@H](N[*:1])[C@H](C)C(=O)[*:2]; NMeI = CC[C@H](C)[C@H](NC)C(=O)O; NMeV = CN[C@H](C(=O)O)C(C)C; Hiv = CC(C)[C@H](O)C(=O)O; NMeA = CN[C@@H](C)C(=O)O; Lac = C[C@H](O)C(=O)O

Assays:
[1] = test system: Trypanosoma brucei rhodesiense; assay: Antitrypanosomal activity against Trypanosoma brucei rhodesiense IL-1501 measured after 69 hrs by alamar blue staining based microplate fluorescence assay; assay type: functional, organism-based; settings: IL-1501, 69 h
Plasmodium falciparum = assay: Antimalarial activity against synchronized asexual blood stage Plasmodium falciparum 3D7 at 10 uM measured after 72 hrs by LDH assay; assay type: functional, organism-based
HeLa = assay: Antiproliferative activity against human HeLa cells measured after 72 hrs by MTT assay; assay type: functional, cell-based

Row | IC50 [1] [nM] | IC50 (HeLa) [nM] | Structure (SMILES) | Activity (Plasmodium falciparum)
1 | 6.3 | – | N=C(N)c1ccc(OCCCCCOc2ccc(C(=N)N)cc2)cc1 [PENTAMIDINE] | –
2 | 730 | 3700 | CC[C@H](C)[C@H]1C(=O)N[C@@H](C)C(=O)N(C)[C@@H](C(C)C)C(=O)N(C)[C@@H](C)C(=O)N[C@@H](C(C)C)C(=O)N(C)[C@@H](C(C)C)C(=O)O[C@@H](C)C(=O)N[C@H](CC)[C@H](C)C(=O)O[C@@H](C(C)C)C(=O)N1C (cyclo(A[NMeV][NMeA]V[NMeV][Lac][X1][Hiv][NMeI])) | inactive
